This passage reports EC50 and Activity results from ChEMBL document CHEMBL1151328, “Novel cytotoxic acylated oligorhamnosides from Mezzettia leptopoda” (1998).

The structures appear in SMILES notation. In brackets after ≈: the same amount, converted by molar mass. Activity calls are given as the source filed them. The rule behind the calls is not given here.

Assay [1] relates to KB. The assay can be described thus: Cytotoxicity against human KB cells. It is filed as functional. The settings on record: read-out: ED50 (the source's name).
The test system of a further assay is ASK. The assay can be described thus: Antimitotic activity in rat ASK cells at 100 ug/mL. It is filed as functional, cell-based.
For the next assay, the system named is Col2. The assay is described as follows: Cytotoxicity against human Col2 cells. It is filed as functional. The settings on record: read-out: ED50 (the source's name).
For the next assay, the system named is LNCaP. The assay can be described thus: Cytotoxicity against human LNCAP cells. It is filed as functional. The note with it: read-out: ED50 (the source's name).
The subject of assay [2] is KB. The assay can be described thus: Cytotoxicity against human drug-resistant KB cells in presence of 1 ug/mL vinblastine. It is filed as functional. The settings on record: read-out: ED50 (the source's name).
Assay [3] in a line: Cytotoxicity against human BC1 cells. It is filed as functional. The settings on record: read-out: ED50 (the source's name).
The test system of assay [4] is KB. The assay is described as follows: Cytotoxicity against human drug-resistant KB cells in absence of vinblastine. The note with it: read-out: ED50 (the source's name). It is filed as functional.
A further assay deals with Lu1. The assay can be described thus: Cytotoxicity against human Lu1 cells. It is filed as functional. The note with it: read-out: ED50 (the source's name).

As for `CCCCCCCCO[C@@H]1O[C@@H](C)[C@H](OC(=O)CCCCC)[C@@H](O[C@@H]2O[C@@H](C)[C@H](OC(C)=O)[C@@H](O[C@@H]3O[C@@H](C)[C@H](OC(C)=O)[C@@H](O)[C@H]3OC(C)=O)[C@H]2OC(C)=O)[C@H]1O` [MEZZETTIASIDE 2], the EC50 is 6.2 µg/mL (≈ 7.43 µM) in the assay on KB [1]; 4.3 µg/mL (≈ 5.15 µM) in the assay on Col2; more than 20 µg/mL in the assay on LNCaP; more than 20 µg/mL in the assay with KB [2]; more than 20 µg/mL in assay [3]; more than 20 µg/mL in the assay with KB [4]. In addition, the EC50 with Lu1 was determined as 8.6 µg/mL (≈ 10.3 µM). Also, in the assay with ASK, the result was inactive.

As for `CCCCCCCCO[C@@H]1O[C@@H](C)[C@H](OC(=O)CCCCC)[C@@H](O[C@@H]2O[C@@H](C)[C@H](OC(C)=O)[C@@H](O[C@@H]3O[C@@H](C)[C@H](OC(C)=O)[C@@H](OC(C)=O)[C@H]3O)[C@H]2OC(C)=O)[C@H]1O` [MEZZETTIASIDE 3], the EC50 is 14.3 µg/mL (≈ 17.1 µM) with KB [1]; 4.9 µg/mL (≈ 5.87 µM) in the assay with Col2; more than 20 µg/mL with LNCaP; more than 20 µg/mL in the assay on KB [2]; more than 20 µg/mL in assay [3]; more than 20 µg/mL with KB [4]. Further, in the assay on Lu1, the EC50 came to 11.8 µg/mL (≈ 14.1 µM). Further, in the assay on ASK, the result was inactive.

As for `CCCCCCCCO[C@@H]1O[C@@H](C)[C@H](OC(=O)CCCCC)[C@@H](O[C@@H]2O[C@@H](C)[C@H](OC(C)=O)[C@@H](O[C@@H]3O[C@@H](C)[C@H](OC(C)=O)[C@@H](O)[C@H]3O)[C@H]2OC(C)=O)[C@H]1O` [MEZZETTIASIDE 4], the EC50 in the assay with KB [1] was 15.4 µg/mL (≈ 19.4 µM); in the assay on Col2 it was 6.2 µg/mL (≈ 7.82 µM); with LNCaP it was more than 20 µg/mL; in the assay with KB [2], more than 20 µg/mL; in assay [3] it was more than 20 µg/mL; with KB [4], more than 20 µg/mL. Further, in the assay with Lu1, the EC50 worked out at 19.4 µg/mL (≈ 24.5 µM). In the assay on ASK, the outcome was inactive.

`CCCCCCCCO[C@@H]1O[C@@H](C)[C@H](OC(=O)CCCCC)[C@@H](O[C@@H]2O[C@@H](C)[C@H](OC(C)=O)[C@@H](O[C@@H]3O[C@@H](C)[C@H](O)[C@@H](O)[C@H]3OC(C)=O)[C@H]2OC(C)=O)[C@H]1O` [MEZZETTIASIDE 8]: the EC50 was more than 20 µg/mL in the assay with KB [1]; 8.2 µg/mL (≈ 10.3 µM) in the assay with Col2; more than 20 µg/mL with LNCaP; more than 20 µg/mL with KB [2]; more than 20 µg/mL in assay [3]; more than 20 µg/mL in the assay with KB [4]. Besides, the EC50 in the assay on Lu1 was 19.7 µg/mL (≈ 24.8 µM). For the same molecule, the result in the assay with ASK was inactive.

With `CCCCCCCCO[C@@H]1O[C@@H](C)[C@H](OC(=O)CCCCC)[C@@H](O[C@@H]2O[C@@H](C)[C@H](O)[C@@H](OC(C)=O)[C@H]2OC(C)=O)[C@H]1O` [MEZZETTIASIDE 9], the EC50 with KB [1] was 11.3 µg/mL (≈ 18.7 µM); with Col2, more than 20 µg/mL; with LNCaP it was more than 20 µg/mL; in the assay on KB [2], more than 20 µg/mL; in assay [3] it was more than 20 µg/mL; with KB [4], more than 20 µg/mL. For the same molecule, the EC50 in the assay on Lu1 was 5.4 µg/mL (≈ 8.93 µM). In the assay on ASK, the outcome was inactive.

Turning to `CCCCCCCCO[C@@H]1O[C@@H](C)[C@H](OC(=O)CCCCC)[C@@H](O[C@@H]2O[C@@H](C)[C@H](OC(C)=O)[C@@H](OC(C)=O)[C@H]2OC(C)=O)[C@H]1O` [MEZZETTIASIDE 11], the EC50 in the assay on KB [1] was 12.7 µg/mL (≈ 19.6 µM); in the assay with Col2 it was 9 µg/mL (≈ 13.9 µM); in the assay with LNCaP, more than 20 µg/mL; in the assay with KB [2] it was 5.6 µg/mL; in assay [3] it was more than 20 µg/mL; with KB [4] it was more than 20 µg/mL. In addition, the EC50 in the assay with Lu1 is 6.1 µg/mL (≈ 9.43 µM). Also, the outcome in the assay with ASK was inactive.

Regarding `CCCCCCCCO[C@@H]1O[C@@H](C)[C@H](OC(=O)CCCCC)[C@@H](O[C@@H]2O[C@@H](C)[C@H](OC(C)=O)[C@@H](O)[C@H]2OC(C)=O)[C@H]1O` [MEZZETTIASIDEIDE 10], the EC50 (with KB [1]; in the assay on Col2; with LNCaP; in the assay on KB [2]; in assay [3]; in the assay on KB [4]) was more than 20 µg/mL throughout. In addition, the EC50 with Lu1 is more than 20 µg/mL. In addition, in the assay on ASK, the result was inactive.
